Drawing on US9643953B2, “Substituted benzylpyrazoles” (Bayer Intellectual Property GmbH, priority 2011, dated 2017), this text covers IC50 for 8 molecules.

Where two headings read alike, the source gives them in different places.

The test system of one assay is DU145 cell line. Put plainly: Proliferation assay (DU145 cell line). To be noted: Homo sapiens, DU-145, 96 h, read-out: Biological Assay 2: Proliferation assay (DU145 cell line) median IC50.
The test system of the next assay is HeLa-MaTu-ADR cell line. The experiment in a line: Proliferation assay (HeLa-MaTu-ADR cell line). To be noted: 96 h, read-out: Biological Assay 2: Proliferation assay (HeLa-MaTu-ADR cell line) median IC50.
For assay [1], the target named is T1, catalytic domain of human Bub1 (amino acids 704-1085) (Homo sapiens, UniProt O43683).
T1 construct: catalytic domain of human Bub1 (amino acids 704-1085); His6 (N); made in house; host or cells: Hi5 insect cells
Put plainly: Bub1 kinase assay (TR-FRET). In kind it is biochemical. The conditions noted are these: ATP 10 μM, peptide substrate 1 μM, 60 min at 22° C. The protocol:
To this end, 100-fold concentrated compound solutions (in DMSO) were previously prepared by serial dilution (1:3.4) of 2 mM stocks in a clear low volume 384-well source microtiter plate (Greiner Bio-One, Frickenhausen, Germany), from which 50 nl of compounds were transferred into a black low volume test microtiter plate from the same supplier. […] The resulting mixture (5 μl final volume) was incubated at 22° C. during 60 min., and the reaction was stopped by the addition of 5 μl of an aqueous EDTA-solution (50 mM EDTA, in 100 mM HEPES pH 7.5 and 0.2% (w/v) bovine serum albumin) which also contained the TR-FRET detection reagents (0.2 μM streptavidin-XL665 [Cisbio Bioassays, Codolet, France] and 1 nM anti-phosho-Serine antibody [Merck Millipore, cat. #35-001] and 0.4 nM LANCE EU-W1024 labeled anti-mouse IgG antibody [Perkin-Elmer, product no. AD0077, alternatively a Terbium-cryptate-labeled anti-mouse IgG antibody from Cisbio Bioassays can be used]). The stopped reaction mixture was further incubated 1 h at 22° C. in order to allow the formation of complexes between peptides and detection reagents. Subsequently, the amount of product was evaluated by measurement of the resonance energy transfer from the Eu-chelate-antibody complex recognizing the Phosphoserine residue to the streptavidin-XL665 bound to the biotin moiety of the peptide. […] IC50 values were calculated by fitting the normalized inhibition data to a 4-parameter logistic equation (Minimum, Maximum, IC50, Hill; Y=Max+(Min−Max)/(1+(X/IC50)Hill)).
On the technique in general: In TR-FRET formats the signal depends on donor and acceptor labels being close together.

The test system of another assay is HeLa cell line. The experiment in a line: Proliferation assay (HeLa cell line).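 Also: crystal violet staining of cell number, absorbance read at 595 nm, compounds tested at 0.001–10 µM, zero-point plate taken as 0% and untreated cells as 100%, four-parameter fit.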 To be noted: read-out: Biological Assay 2: Proliferation assay (HeLa cell line) median IC50.
The subject of a further assay is B16F10 cell line. Put plainly: Proliferation assay (B16F10 cell line). The conditions noted are these: Mus musculus, B16-F10, 96 h, read-out: Biological Assay 2: Proliferation assay (B16F10 cell line) median IC50.
A further assay concerns H460 cell line. The experiment in a line: Proliferation assay (H460 cell line). The conditions noted are these: Homo sapiens, NCI-H460, 96 h, read-out: Biological Assay 2: Proliferation assay (H460 cell line) median IC50.
A further assay relates to Caco2 cell line. The experiment in a line: Proliferation assay (Caco2 cell line). To be noted: Homo sapiens, Caco-2, 96 h, read-out: Biological Assay 2: Proliferation assay (Caco2 cell line) median IC50.
Setting [2] is: TR-FRET, read-out: Biological Assay 1: Bub1 kinase assay median IC50.
Where [3] appears, read: Biological Assay 1: Bub1 kinase assay median IC50, TR-FRET.

T1 sequence (O43683 704-1085): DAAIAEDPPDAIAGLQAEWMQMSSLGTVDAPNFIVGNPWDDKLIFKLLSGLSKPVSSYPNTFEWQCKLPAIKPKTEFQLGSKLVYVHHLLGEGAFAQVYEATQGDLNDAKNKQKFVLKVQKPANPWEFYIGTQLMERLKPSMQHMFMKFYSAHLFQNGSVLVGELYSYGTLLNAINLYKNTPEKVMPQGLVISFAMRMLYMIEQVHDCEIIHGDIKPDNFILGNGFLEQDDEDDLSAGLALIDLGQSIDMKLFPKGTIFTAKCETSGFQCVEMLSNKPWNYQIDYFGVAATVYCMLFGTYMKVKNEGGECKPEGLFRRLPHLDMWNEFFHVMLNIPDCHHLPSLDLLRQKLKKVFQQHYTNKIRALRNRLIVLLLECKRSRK
Method for B16F10 cell line: (§1) Cultivated tumor cells (cells were ordered from ATCC, except HeLa-MaTu and HeLa-MaTu-ADR, which were ordered from EPO-GmbH, Berlin) were plated at a density of 1000 to 5000 cells/well, depending on the growth rate of the respective cell line, in a 96-well multititer plate in 200 μL of their respective growth medium supplemented 10% fetal calf serum. After 24 hours, the cells of one plate (zero-point plate) were stained with crystal violet (see below), while the medium of the other plates was replaced by fresh culture medium (200 μl), to which the test substances were added in various concentrations (0 μM, as well as in the range of 0.001-10 μM; the final concentration of the solvent dimethyl sulfoxide was 0.5%). The cells were incubated for 4 days in the presence of test substances. Cell proliferation was determined by staining the cells with crystal violet: the cells were fixed by adding 20 μl/measuring point of an 11% glutaric aldehyde solution for 15 minutes at room temperature. After three washing cycles of the fixed cells with water, the plates were dried at room temperature. The cells were stained by adding 100 μl/measuring point of a 0.1% crystal violet solution (pH 3.0). After three washing cycles of the stained cells with water, the plates were dried at room temperature. The dye was dissolved by adding 100 μl/measuring point of a 10% acetic acid solution. Absorption was determined by photometry at a wavelength of 595 nm. The change of cell number, in percent, was calculated by normalization of the measured values to the absorption values of the zero-point plate (=0%) and the absorption of the untreated (0 μm) cells (=100%). The IC50 values were determined by means of a 4 parameter fit.
Method for Caco2 cell line: as §1
Method for DU145 cell line: as §1
Method for H460 cell line: as §1
Method for HeLa cell line: as §1
Method for HeLa-MaTu-ADR cell line: as §1

On to `CCOc1cc(F)c(Cn2nc(-c3ncc(OC)c(Nc4ccncc4)n3)c(C)c2C2CC2)c(F)c1` [Example 2-1-12, 2-[5-cyclopropyl-1-(4-ethoxy-2,6-difluorobenzyl)-4-methyl-1H-pyrazol-3-yl]-5-methoxy-N-(pyridin-4-yl)pyrimidin-4-amine], for which the IC50 in the assay with DU145 cell line was determined as 3.09 µM; in the assay on HeLa-MaTu-ADR cell line it was 3.08 µM; in assay [1] (setting [2]), 0.00603 µM; in the assay on HeLa cell line (Homo sapiens, HeLa, 96 h), 4.38 µM; with B16F10 cell line it was 2.24 µM; in the assay on H460 cell line it was 2.62 µM. Further, the IC50 in the assay on Caco2 cell line came to 2.13 µM.

Consider `CCOc1cc(F)c(Cn2nc(-c3ncc(OCCCS(C)(=O)=O)c(Nc4ccncc4)n3)c(C)c2C2CC2)c(F)c1` [Example 2-3-10, 2-[5-cyclopropyl-1-(4-ethoxy-2,6-difluorobenzyl)-4-methyl-1H-pyrazol-3-yl]-5-[3-(methylsulfonyl)propoxy]-N-(pyridin-4-yl)pyrimidin-4-amine], for which the IC50 in the assay on DU145 cell line amounted to 1.61 µM; in the assay on HeLa-MaTu-ADR cell line, 0.755 µM; in assay [1] (setting [3]) it was 0.00949 µM; with HeLa cell line (Homo sapiens, HeLa, 96 h), 1.13 µM; in the assay with B16F10 cell line it was 1.18 µM; in the assay with H460 cell line it was 1.55 µM. The IC50 in the assay on Caco2 cell line was found to be 1.41 µM.

As to `CCOc1cc(F)c(Cn2nc(-c3ncc(OCCN(C)C)c(Nc4ccncc4)n3)c(C)c2C2CC2)c(F)c1` [Example 2-3-1, 2-[5-cyclopropyl-1-(4-ethoxy-2,6-difluorobenzyl)-4-methyl-1H-pyrazol-3-yl]-5-[2-(dimethylamino)ethoxy]-N-(pyridin-4-yl)pyrimidin-4-amine], the IC50 worked out at 3.2 µM with DU145 cell line; 1.26 µM in the assay on HeLa-MaTu-ADR cell line; 0.00745 µM in assay [1] (setting [3]); 3.45 µM in the assay with HeLa cell line (Homo sapiens, HeLa, 96 h); 0.422 µM with B16F10 cell line; 1.46 µM in the assay on H460 cell line. Besides, the IC50 in the assay with Caco2 cell line was 1.94 µM.

In the case of `CCOc1cc(F)c(Cn2nc(-c3ncc(OC)c(Nc4ccncc4)n3)c(C)c2OC)c(F)c1` [Example 2-1-1, 2-[1-(4-ethoxy-2,6-difluorobenzyl)-5-methoxy-4-methyl-1H-pyrazol-3-yl]-5-methoxy-N-(pyridin-4-yl)pyrimidin-4-amine], the IC50 in assay [1] (setting [3]) came out at 0.00614 µM; in the assay with HeLa cell line (Homo sapiens, HeLa, 96 h) it was 7.38 µM.

For `CCOc1cc(F)c(Cn2nc(-c3ncc(OCC4CCC(=O)N4)c(Nc4ccncc4)n3)c(C)c2C2CC2)c(F)c1` (single isomer, unassigned; enantiomer 2) [Example 2-3-7, 5-[({2-[5-cyclopropyl-1-(4-ethoxy-2,6-difluorobenzyl)-4-methyl-1H-pyrazol-3-yl]-4-(pyridin-4-ylamino)pyrimidin-5-yl}oxy)methyl]pyrrolidin-2-one enantiomer 2], the IC50 in assay [1] (setting [2]) is 0.0121 µM; with HeLa cell line (HeLa cells, 4 days incubation, crystal violet staining), 2.89 µM.

In the case of `COc1cnc(-c2cc(OC)n(Cc3ccccc3F)n2)nc1Nc1ccncc1C#N` [Example 2-1-7, 4-({2-[1-(2-fluorobenzyl)-5-methoxy-1H-pyrazol-3-yl]-5-methoxypyrimidin-4-yl}amino)pyridine-3-carbonitrile], the IC50 is 1.42 µM in assay [1] (setting [2]) and greater than 10 µM with HeLa cell line (Homo sapiens, HeLa, 96 h).

With `CCOc1cc(F)c(Cn2nc(-c3ncc(OCCCSC)c(Nc4ccncc4)n3)c(C)c2C2CC2)c(F)c1` [Example 2-3-8, 2-[5-cyclopropyl-1-(4-ethoxy-2,6-difluorobenzyl)-4-methyl-1H-pyrazol-3-yl]-5-[3-(methylsulfanyl)propoxy]-N-(pyridin-4-yl)pyrimidin-4-amine], the IC50 in assay [1] (setting [3]) was 0.0137 µM; in the assay on HeLa cell line (Homo sapiens, HeLa, 96 h), 2.96 µM.

Consider `CCOc1cc(F)c(Cn2nc(-c3nccc(Nc4ccncc4C(N)=O)n3)c(C)c2C2CC2)c(F)c1` [Example 2-4-3, 4-({2-[5-cyclopropyl-1-(4-ethoxy-2,6-difluorobenzyl)-4-methyl-1H-pyrazol-3-yl]pyrimidin-4-yl}amino)nicotinamide], for which the IC50 in assay [1] (setting [3]) was found to be 0.00932 µM; with HeLa cell line (Homo sapiens, HeLa, 96 h) it was 4.46 µM.
